Measurements from patent US20260184700A1, “PDK1 REGULATORY COMPOUND AND COMPOSITION CONTAINING THE SAME” (PROVIBIO CO., LTD., priority 2024, published 2026).

What was measured:
[1] = system: T cells isolated from mouse spleen; assay: T cell proliferation inhibition, CFSE flow cytometry, CD3/CD28 activation; assay type: cell-based; conditions: CD3/CD28 activated, 3 days
In short: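 Splenic T cells from 7-week-old C57BL/6 mice were MACS-isolated, CFSE-labelled, seeded at 2×10^5 cells/well and activated with anti-CD3/anti-CD28 (0.5 μg/mL each). Compound at 10 nM–50 μM (six levels, triplicate) was present for 3 days at 37 °C before flow cytometric readout of proliferation inhibition rate.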

[2] = system: HCT-116 colon cancer cell lines; assay: Invasion Assay using Matrigel, HCT-116; assay type: cell-based, human; conditions: HCT-116, Matrigel invasion, 24 hours treatment
Method: To evaluate the metastasis inhibitory efficacy of the compounds of the present invention on HCT-116 colon cancer cell lines, an Invasion Assay using Matrigel was performed to assess the cells' invasion ability.
First, Matrigel was thawed on ice in RPMI-1640 medium without FBS, then diluted with DMEM at a ratio of 1:20.
The diluted Matrigel mixture was applied to the upper chamber at 100 μl per well, and 750 μl of RPMI-1640 without FBS was added to the lower chamber.
The plates were then incubated at 37° C. for 1 hour to allow the Matrigel to solidify.
After coating, the Matrigel mixture in the upper chamber was removed using a pipette, and the chamber was washed with RPMI without FBS.
Human-derived colorectal cancer cell line HCT-116, obtained from the Korean Cell Bank, was cultured in RPMI-1640 medium containing 10% FBS.
Following stabilization, the cells were harvested using Trypsin-EDTA treatment, centrifuged at 1,200 rpm for 3 minutes, the supernatant was removed, and the cells were resuspended in the same medium, the medium in the lower chamber was replaced with 750 μl of RPMI-1640 supplemented with 10% FBS, and the cells were seeded into the upper chamber at a density of 5×10^4 cells/well.
The cells were cultured for 24 hours after attachment, and then the compounds according to the present invention (G078, G085, G086, G088, G089, PBK-2024-010, PBK-2025-010, PBK-2025-013, PBK-2025-016) and the control substance DMSO were diluted and added to the upper chamber after removing the medium.
Additionally, the medium in the lower chamber was replaced with fresh RPMI-1640 containing FBS, and the culture was continued.
After an additional 24 hours, the medium was removed, and 1 ml of methanol was added for 10 minutes to fix the cells.
Subsequently, 1 ml of Hematoxylin was added and reacted for 5 minutes, followed by 1 ml of Eosin, which was reacted for 30 seconds. The sample was then washed with distilled water (DW).
After staining was complete, any remaining cells in the upper chamber were removed. Finally, the infiltrated cells were observed under a microscope, photographed, and the degree of infiltration was analyzed.

[3] = target: T1, full-length (PDK1-FL) protein of human-derived PDK1 (Homo sapiens, UniProt O15530); assay: Microscale Thermophoresis (MST) binding, full-length PDK1; conditions: Kd ratio
T1 construct: the full-length (PDK1-FL) protein of human-derived PDK1; inferred from the Ni-NTA purification; made in house; host or cells: Sf9 insect cells, baculovirus
T1 sequence (O15530 1-556): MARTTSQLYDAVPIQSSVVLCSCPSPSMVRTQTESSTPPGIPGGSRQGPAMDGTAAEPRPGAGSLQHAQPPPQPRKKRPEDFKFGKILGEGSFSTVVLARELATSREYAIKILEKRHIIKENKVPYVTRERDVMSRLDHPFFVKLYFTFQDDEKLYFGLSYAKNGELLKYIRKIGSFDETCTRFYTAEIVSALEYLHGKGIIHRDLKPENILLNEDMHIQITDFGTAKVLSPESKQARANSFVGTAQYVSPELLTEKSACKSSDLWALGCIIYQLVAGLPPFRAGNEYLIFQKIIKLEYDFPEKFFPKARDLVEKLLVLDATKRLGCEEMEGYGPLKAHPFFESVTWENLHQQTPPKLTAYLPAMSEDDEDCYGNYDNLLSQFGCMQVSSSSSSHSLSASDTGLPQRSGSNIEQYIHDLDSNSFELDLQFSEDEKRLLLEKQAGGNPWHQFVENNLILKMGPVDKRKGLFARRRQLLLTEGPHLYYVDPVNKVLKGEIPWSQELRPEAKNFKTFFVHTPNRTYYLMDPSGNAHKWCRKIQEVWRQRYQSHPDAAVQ
Method: Microscale Thermophoresis (MST) analysis was performed to quantitatively measure the binding affinity between PDK1 protein and substrate peptides (PDKTide) or the company-developed low-molecular-weight compound (GO88).
The target proteins were the full-length (PDK1-FL) protein of human-derived PDK1 and the Protein Kinase Domain (PKD) fragment, which were expressed using a baculovirus expression system in insect cell lines (Sf9).
The purity of the purified proteins was confirmed by SDS-PAGE and Coomassie Brilliant Blue staining.
The purified protein was labeled with a fluorescent label using the Monolith NT™ RED-NHS Protein Fluorescent Labeling Kit (NanoTemper).
Specifically, 20 μM of the protein was dissolved in PBS (pH 7.4) buffer, mixed with the fluorescent reagent, and reacted at room temperature under dark conditions for 30 minutes. The mixture was then buffered with MST analysis buffer (50 mM HEPES, 150 mM NaCl, 1 mM DTT, 0.05% Tween-20, pH 7.5). […]
The reaction samples were injected into an MST-specific capillary (NanoTemper) and analyzed using a Monolith NT.115 device (NanoTemper) under laser intensity conditions. […]
The measured data were analyzed using MO.Affinity Analysis software (NanoTemper), and the dissociation constant (Kd) was calculated from the binding curve.

Row | binding affinity of full-length PDK1 compared to the PDK fragment [3] | Structure (SMILES) | Proliferation inhibition rate (%) ([1]; compound 100 nM) | Proliferation inhibition rate (%) ([1]; compound 1 μM) | Proliferation inhibition rate (%) ([1]; compound 10 μM) | Proliferation inhibition rate (%) ([1]; compound 30 μM) | Proliferation inhibition rate (%) ([1]; compound 50 μM) | number of infiltrated cells [2]
1 |  | CC1(C)CN(CCCCCCCCCCCCC(=O)Nc2nc(N)c3[nH]cnc3n2)CCO1 [Compound 11, 12-[4-(2,2-dimethylmorpholin-4-yl)]dodecyl-N-(6-aminopurine-2-yl)carboxamide] | 100.00 | 100.00 | 100.00 | 100.00 | 100.00 | reduction in the number of infiltrated cells
2 | six times stronger binding affinity | Nc1ncccc1C(=O)NCCCCCCCCCCCCN1CCNCC1 [Compound 14, 2-Amino-N-(12-(piperazin-1-yl)dodecyl)nicotinamide] |  |  |  |  |  | 
